Structures are written as SMILES. The source made the active and inactive calls. The calls are words filed in the database; no cut-off is given here.

What all share (assay type): functional
The test system of assay [1] is Bacillus subtilis. Put plainly: Antibacterial activity against Bacillus subtilis at 50 ug after 24 hrs by agar well diffusion method. The settings on record: for zone of inhibition at 50 µg/disc: read-out: DIZ.
Assay [2] relates to Bacillus subtilis. Kind of assay: Antibacterial activity against Bacillus subtilis at 100 ug after 24 hrs by agar well diffusion method. The settings on record: for zone of inhibition at 100 µg/disc: read-out: DIZ. (In general: A growth-free zone around the sample is the usual read-out of agar diffusion tests.)
For assay [3], the system named is Penicillium chrysogenum. Put plainly: Antifungal activity against Penicillium chrysogenum at 100 ug after 48 hrs by agar well diffusion method. The settings on record: for zone of inhibition at 100 µg/disc: read-out: DIZ.
Assay [4] has as its system Klebsiella pneumoniae. Kind of assay: Antibacterial activity against Klebsiella pneumoniae at 50 ug after 24 hrs by agar well diffusion method. The note with it: for zone of inhibition at 50 µg/disc: read-out: DIZ.
Assay [5] has as its system Aspergillus niger. Kind of assay: Antifungal activity against Aspergillus niger at 100 ug after 48 hrs by agar well diffusion method. The note with it: for zone of inhibition at 100 µg/disc: read-out: DIZ.
For assay [6], the system named is Penicillium chrysogenum. Kind of assay: Antifungal activity against Penicillium chrysogenum at 50 ug after 48 hrs by agar well diffusion method. The settings on record: for zone of inhibition at 50 µg/disc: read-out: DIZ.
The subject of assay [7] is Pseudomonas aeruginosa. Kind of assay: Antibacterial activity against Pseudomonas aeruginosa at 100 ug after 24 hrs by agar well diffusion method. The note with it: for zone of inhibition at 100 µg/disc: read-out: DIZ.
Assay [8] concerns Staphylococcus aureus. Put plainly: Antibacterial activity against Staphylococcus aureus at 100 ug after 24 hrs by agar well diffusion method. The note with it: for zone of inhibition at 100 µg/disc: read-out: DIZ.
The subject of assay [9] is Klebsiella pneumoniae. Kind of assay: Antibacterial activity against Klebsiella pneumoniae at 100 ug after 24 hrs by agar well diffusion method. The note with it: for zone of inhibition at 100 µg/disc: read-out: DIZ.
Assay [10] relates to Pseudomonas aeruginosa. Kind of assay: Antibacterial activity against Pseudomonas aeruginosa at 50 ug after 24 hrs by agar well diffusion method. The settings on record: for zone of inhibition at 50 µg/disc: read-out: DIZ.
The test system of assay [11] is Aspergillus niger. Kind of assay: Antifungal activity against Aspergillus niger at 50 ug after 48 hrs by agar well diffusion method. The note with it: for zone of inhibition at 50 µg/disc: read-out: DIZ.
Assay [12] has as its system Staphylococcus aureus. Kind of assay: Antibacterial activity against Staphylococcus aureus assessed at 50 ug after 24 hrs by agar well diffusion method. The note with it: for zone of inhibition at 50 µg/disc: read-out: DIZ.

As for `Cc1ccc(-c2coc(NC(=O)c3c[nH]cc3-c3ccccc3)n2)cc1`, the “diameter of the inhibition zone (DIZ)” value in the assay with Bacillus subtilis [1], with Bacillus subtilis [2], in the assay with Penicillium chrysogenum [3], with Klebsiella pneumoniae [4], in the assay with Aspergillus niger [5] and in the assay on Penicillium chrysogenum [6] was “inactive” throughout. The “diameter of the inhibition zone (DIZ)” value with Pseudomonas aeruginosa [7], in the assay on Staphylococcus aureus [8], in the assay with Klebsiella pneumoniae [9], in the assay on Pseudomonas aeruginosa [10], with Aspergillus niger [11] and in the assay on Staphylococcus aureus [12] was “inactive” in each case.
As to `O=C(/C=C/c1ccccc1)Nc1nc(-c2ccc(Cl)cc2)cs1`, the zone of inhibition at 50 µg/disc in the assay on Bacillus subtilis [1] worked out at 27 mm; in the assay on Klebsiella pneumoniae [4], 33 mm; with Penicillium chrysogenum [6], 32 mm; in the assay with Pseudomonas aeruginosa [10] it was 25 mm; in the assay on Aspergillus niger [11] it was 31 mm; in the assay with Staphylococcus aureus [12], 29 mm. Also, the zone of inhibition at 100 µg/disc in the assay on Bacillus subtilis [2] stood at 29 mm; in the assay with Penicillium chrysogenum [3] it was 35 mm; in the assay on Aspergillus niger [5] it was 33 mm; with Pseudomonas aeruginosa [7], 27 mm; with Staphylococcus aureus [8], 32 mm; in the assay on Klebsiella pneumoniae [9], 35 mm.
Take `Cc1ccc(-c2coc(NC(=O)/C=C/c3ccccc3)n2)cc1`: the “diameter of the inhibition zone (DIZ)” value in the assay with Bacillus subtilis [1], with Bacillus subtilis [2], in the assay on Penicillium chrysogenum [3], in the assay with Klebsiella pneumoniae [4], in the assay with Aspergillus niger [5] and in the assay on Penicillium chrysogenum [6] was “inactive” in each case. The “diameter of the inhibition zone (DIZ)” value with Pseudomonas aeruginosa [7], in the assay with Staphylococcus aureus [8], in the assay with Klebsiella pneumoniae [9], in the assay with Pseudomonas aeruginosa [10], in the assay on Aspergillus niger [11] and in the assay on Staphylococcus aureus [12] was “inactive” each time.
Turning to `O=C(/C=C/c1ccccc1)Nc1nc(-c2ccccc2)co1`, the zone of inhibition at 50 µg/disc was found to be 15 mm with Bacillus subtilis [1] and 12 mm in the assay on Staphylococcus aureus [12]. Also, the zone of inhibition at 100 µg/disc in the assay with Bacillus subtilis [2] is 16 mm; with Staphylococcus aureus [8], 15 mm. Also, the “diameter of the inhibition zone (DIZ)” value with Penicillium chrysogenum [3], in the assay on Klebsiella pneumoniae [4], in the assay with Aspergillus niger [5], in the assay with Penicillium chrysogenum [6], in the assay on Pseudomonas aeruginosa [7] and with Klebsiella pneumoniae [9] was “inactive” throughout. Moreover, the “diameter of the inhibition zone (DIZ)” value in the assay with Pseudomonas aeruginosa [10] and in the assay with Aspergillus niger [11] was “inactive” in each case.
With `O=C(Nc1nc(-c2ccccc2)c[nH]1)c1n[nH]cc1-c1ccccc1`, the zone of inhibition at 50 µg/disc with Bacillus subtilis [1] was 10 mm; in the assay on Klebsiella pneumoniae [4], 12 mm; in the assay with Penicillium chrysogenum [6], 9 mm; in the assay on Pseudomonas aeruginosa [10] it was 9 mm; with Aspergillus niger [11], 8 mm; in the assay with Staphylococcus aureus [12] it was 8 mm. In addition, the zone of inhibition at 100 µg/disc in the assay on Bacillus subtilis [2] was found to be 13 mm; with Penicillium chrysogenum [3] it was 12 mm; in the assay on Aspergillus niger [5], 10 mm; with Pseudomonas aeruginosa [7] it was 11 mm; in the assay with Staphylococcus aureus [8], 10 mm; with Klebsiella pneumoniae [9], 14 mm.
Turning to `Cc1ccc(-c2c[nH]c(NC(=O)c3n[nH]cc3-c3ccccc3)n2)cc1`, the zone of inhibition at 50 µg/disc with Bacillus subtilis [1] turned out to be 9 mm; in the assay with Klebsiella pneumoniae [4], 11 mm; in the assay with Penicillium chrysogenum [6] it was 8 mm; in the assay with Pseudomonas aeruginosa [10] it was 9 mm; with Aspergillus niger [11], 8 mm; in the assay with Staphylococcus aureus [12] it was 8 mm. Further, the zone of inhibition at 100 µg/disc in the assay on Bacillus subtilis [2] amounted to 12 mm; in the assay on Penicillium chrysogenum [3], 11 mm; with Aspergillus niger [5], 9 mm; in the assay on Pseudomonas aeruginosa [7], 10 mm; with Staphylococcus aureus [8], 9 mm; in the assay with Klebsiella pneumoniae [9], 13 mm.
As to `Cc1ccc(-c2coc(NC(=O)c3n[nH]cc3-c3ccccc3)n2)cc1`, the “diameter of the inhibition zone (DIZ)” value with Bacillus subtilis [1], with Bacillus subtilis [2], in the assay with Penicillium chrysogenum [3], with Klebsiella pneumoniae [4], in the assay on Aspergillus niger [5] and with Penicillium chrysogenum [6] was “inactive” in each case. Also, the “diameter of the inhibition zone (DIZ)” value with Pseudomonas aeruginosa [7], in the assay on Staphylococcus aureus [8], with Klebsiella pneumoniae [9], in the assay on Pseudomonas aeruginosa [10], in the assay on Aspergillus niger [11] and in the assay on Staphylococcus aureus [12] was “inactive” throughout.
Turning to `O=C(/C=C/c1ccccc1)Nc1nc(-c2ccccc2)cs1`, the zone of inhibition at 50 µg/disc with Bacillus subtilis [1] stood at 24 mm; in the assay on Klebsiella pneumoniae [4] it was 26 mm; in the assay with Penicillium chrysogenum [6], 23 mm; in the assay with Pseudomonas aeruginosa [10], 17 mm; with Aspergillus niger [11] it was 21 mm; in the assay on Staphylococcus aureus [12], 21 mm. The zone of inhibition at 100 µg/disc in the assay on Bacillus subtilis [2] stood at 26 mm; in the assay on Penicillium chrysogenum [3], 26 mm; with Aspergillus niger [5] it was 24 mm; in the assay on Pseudomonas aeruginosa [7], 18 mm; with Staphylococcus aureus [8], 23 mm; with Klebsiella pneumoniae [9], 28 mm.
As to `O=C(Nc1nc(-c2ccccc2)cs1)c1c[nH]cc1-c1ccccc1`, the zone of inhibition at 50 µg/disc in the assay with Bacillus subtilis [1] came out at 20 mm; in the assay with Klebsiella pneumoniae [4] it was 22 mm; with Penicillium chrysogenum [6] it was 19 mm; in the assay on Pseudomonas aeruginosa [10], 15 mm; with Aspergillus niger [11], 18 mm; in the assay with Staphylococcus aureus [12] it was 17 mm. Also, the zone of inhibition at 100 µg/disc with Bacillus subtilis [2] was found to be 22 mm; in the assay with Penicillium chrysogenum [3] it was 22 mm; in the assay on Aspergillus niger [5], 20 mm; in the assay on Pseudomonas aeruginosa [7], 16 mm; in the assay with Staphylococcus aureus [8], 19 mm; with Klebsiella pneumoniae [9] it was 24 mm.
On to `O=C(Nc1nc(-c2ccc(Cl)cc2)cs1)c1c[nH]cc1-c1ccccc1`, for which the zone of inhibition at 50 µg/disc was 27 mm with Bacillus subtilis [1]; 29 mm in the assay on Klebsiella pneumoniae [4]; 30 mm in the assay on Penicillium chrysogenum [6]; 23 mm with Pseudomonas aeruginosa [10]; 29 mm in the assay on Aspergillus niger [11]; 26 mm in the assay on Staphylococcus aureus [12]. The zone of inhibition at 100 µg/disc in the assay with Bacillus subtilis [2] came out at 29 mm; in the assay on Penicillium chrysogenum [3], 33 mm; in the assay with Aspergillus niger [5], 31 mm; in the assay with Pseudomonas aeruginosa [7], 25 mm; with Staphylococcus aureus [8] it was 27 mm; in the assay with Klebsiella pneumoniae [9], 30 mm.
For `O=C(Nc1nc(-c2ccc(Cl)cc2)cs1)C1=NNCC1c1ccccc1` (stereo unspecified), the zone of inhibition at 50 µg/disc is 25 mm in the assay on Bacillus subtilis [1]; 25 mm in the assay on Klebsiella pneumoniae [4]; 28 mm with Penicillium chrysogenum [6]; 22 mm in the assay on Pseudomonas aeruginosa [10]; 28 mm with Aspergillus niger [11]; 24 mm in the assay on Staphylococcus aureus [12]. The zone of inhibition at 100 µg/disc was determined as 26 mm in the assay with Bacillus subtilis [2]; 31 mm in the assay on Penicillium chrysogenum [3]; 29 mm in the assay with Aspergillus niger [5]; 23 mm with Pseudomonas aeruginosa [7]; 27 mm in the assay with Staphylococcus aureus [8]; 28 mm with Klebsiella pneumoniae [9].
Take `O=C(Nc1nc(-c2ccc(Cl)cc2)co1)C1=NNCC1c1ccccc1` (stereo unspecified): the zone of inhibition at 50 µg/disc is 17 mm with Bacillus subtilis [1]; 22 mm in the assay on Klebsiella pneumoniae [4]; 24 mm with Penicillium chrysogenum [6]; 17 mm in the assay with Pseudomonas aeruginosa [10]; 23 mm with Aspergillus niger [11]; 17 mm in the assay with Staphylococcus aureus [12]. In addition, the zone of inhibition at 100 µg/disc with Bacillus subtilis [2] was 20 mm; in the assay with Penicillium chrysogenum [3], 27 mm; with Aspergillus niger [5], 25 mm; with Pseudomonas aeruginosa [7], 19 mm; in the assay with Staphylococcus aureus [8] it was 18 mm; in the assay on Klebsiella pneumoniae [9], 24 mm.
In the case of `O=C(Nc1nc(-c2ccccc2)co1)C1=NNCC1c1ccccc1` (stereo unspecified), the “diameter of the inhibition zone (DIZ)” value in the assay with Bacillus subtilis [1], in the assay on Bacillus subtilis [2], with Penicillium chrysogenum [3], in the assay with Klebsiella pneumoniae [4], in the assay on Aspergillus niger [5] and in the assay with Penicillium chrysogenum [6] was “inactive” in each case. Further, the “diameter of the inhibition zone (DIZ)” value in the assay with Pseudomonas aeruginosa [7], in the assay on Staphylococcus aureus [8], in the assay on Klebsiella pneumoniae [9], in the assay on Pseudomonas aeruginosa [10], in the assay on Aspergillus niger [11] and in the assay with Staphylococcus aureus [12] was “inactive” each time.

The values are drawn from ChEMBL document CHEMBL2146447, “Synthesis and antimicrobial activity of amido linked pyrrolyl and pyrazolyl-oxazoles, thiazoles and imidazoles” (2011).
